For assay [1], the system named is WASp. Nature of the assay: WASp expression in Meg-01 megakaryocyte cell line (western blot). The settings on record: Meg-01 cells, treated vs untreated. In kind it is cell-based, human. As for the experimental part:
Freshly-isolated platelets were stimulated with 10 μM of TRAP-6 for the indicated time points, followed by lysis. WIP (FIG. 7A) or WASp (FIG. 7B) were immunoprecipitated from the lysates and analyzed by western blot for co-immunoprecipitation, using anti-WASp, anti-WIP or anti-PKCθ antibodies. WASp immunoprecipitates were immunoblotted for WASp ubiquitylation using anti-ubiquitin (Ub) antibody (FIG. 7C). Ubiquitylated WASp appears as a smear of bands above the MW of 65 kDa with a prominent band at ˜81 kDa. […] Blots are representative of three independent experiments. Meg-01 megakaryocyte cell line was activated in the presence (+) or absence (−) of MG132, followed by lysis (FIG. 7E). WASp ubiquitylation was determined by co-immunoprecipitation analysis as in FIG. 7C. FIG. 7F illustrates Meg-01 cells that were transfected with PKCθ-specific siRNA (+) or non-specific (NS) siRNA (−). 24 h later, the cells were stimulated and lysed. PKCθ and WASp protein expression levels were analyzed by western blot with anti-PKCθ and anti-WASp antibodies, and with anti-GAPDH as loading control. Relative protein expression was determined by densitometric analysis and is presented below the corresponding lanes. […] Blots are representative of three independent experiments.
Human primary PBMCs were isolated from whole blood of healthy donors, as previously described (Barda-Saad et al, 2005). […]

Assay [2] has as its system WAS−/−/WASp R86C Jurkat T-cells. Nature of the assay: Lymphocyte activation (CD69, flow cytometry) in WAS−/−/WASp R86C cells. In kind it is cell-based, human. The settings on record: cells exclusively expressing YFP-WASp R86C, PMA and Ionomycin, vs control. As for the experimental part:
1×10^6 WASp knockout Jurkat T-cell line that expresses only exogenous YFP-WASp harboring the common human WAS and XLT mutation, R86C (WAS−/−/WASp R86C) was pretreated with either negative control or SMC #34. Cells that completely lack WASp expression (WAS^−/−) were also treated with the control. The cells were then stimulated with PMA and Ionomycin. After incubation, the cells were stained with PE-Cy5™-conjugated mouse anti-human CD69 and lymphocyte activation was measured by flow cytometry as described in Experimental procedures. Histogram of negative control versus SMC #34 is presented.
PBMCs or Jurkat cells (about 3×10^5 cells) were incubated for 4 h, at 37° C. with 50 ng/ml PMA and 250 ng/ml lonomycin, or 40 ng/ml PMA and 6 μM Ionomycin, respectively, or left untreated. After incubation, the cells were collected and stained with 1 μg/ml anti-active human LFA-1 antibody (purified from KIM127 hybridoma sup, ATCC Cat #: CRL-2838, Sigma) for 30 min in 37° C., followed by staining with Alexa488-Fluor goat anti-mouse IgG1 secondary antibody (Molecular Probes, Cat #: A-21121), 30 min on ice. Cells were then co-stained with PE-Cy5™-conjugated mouse anti-human CD69 (BD Pharmingen, Cat #: 555532) to measure lymphocyte activation.

Peptide text beside a SMILES is read from it. * marks the point of attachment. Cbz = O=C(OCc1ccccc1)*

We go through two compounds from patent US12150940B2, “WASp-protecting small molecules, compositions, methods and uses thereof in the treatment of innate and acquired immune-related disorders or conditions” (BAR ILAN UNIVERSITY, priority 2016, dated 2024).

As to `CC(C)C[C@@H](C=O)NC(=O)[C@H](CC(C)C)NC(=O)[C@H](CC(C)C)NC(=O)OCc1ccccc1` [MG132] (Cbz-Leu-Leu-Leu-aldehyde), in assay [1], the “WASp in whole cell lysates (W.C.L)” value is recorded as “more WASp was detected”.
Take `CC1CCCC(C)N1C(=O)CSc1nnc(COc2cccc3cccnc23)o1` (centres unmarked) [SMC #34, 1-(2,6-dimethylpiperidin-1-yl)-2-[[5-(quinolin-8-yloxymethyl)-1,3,4-oxadiazol-2-yl]sulfanyl]ethanone]: in assay [2], the “lymphocyte activation (CD69)” value is given as “upregulation of lymphocyte activation”.
